Measured values as given in patent EP4567037A1, “USE OF PYRROLOPYRIMIDINE COMPOUND IN TREATMENT OF ACUTE GRAFT VERSUS HOST DISEASE” (Chia Tai Tianqing Pharmaceutical Group Co., Ltd., priority 2022, dated 2024).

System: glucocorticoid-resistant acute graft-versus-host disease
Assay: Clinical study of tablets of the compound of formula II in subjects with glucocorticoid-resistant acute graft-versus-host disease
Assay type: in vivo
Protocol: This study was conducted to evaluate the safety and preliminary efficacy of the compound of formula II for treating acute graft-versus-host disease in a subject resistant to glucocorticoid.
Administration method: orally administered twice a day at fasting, at a dose of 10 mg or 15 mg each time, with 28 consecutive days of administration as one treatment cycle.
Drug: the compound of formula I in 5 mg or 20 mg tablets, with the compound of formula I being shown as its stereoisomer, a compound of formula II: [drawing 4]
• 1) Aged 12-75 years (inclusive), with no gender restriction; • 2) Previously received allogeneic hematopoietic stem cell transplantation (including non-myeloablative, myeloablative, and reduced-intensity conditioning transplantation of bone marrow, peripheral blood stem cells, and umbilical cord blood); • 3) Clinically diagnosed with aGVHD of grade II to grade IV according to MAGIC guidelines; • Resistance to glucocorticoid therapy *, defined as resistance to high-dose systemic glucocorticoid (methylprednisolone at a dose of 1-2 mg/kg/day or prednisone at an equivalent dose of 1.25-2.5 mg/kg/day), taken alone or taken in combination with a calcineurin inhibitor (CNI); • * Subjects meeting any one of the following conditions can be defined as resistant to conventional glucocorticoid therapy, i.e., therapy with methylprednisolone at a dose of ≥ 1 mg/kg/day or therapy with another type of glucocorticoid at an equivalent dose: (1) progression of aGVHD after the glucocorticoid therapy has been administered for 3 days, (2) no amelioration in aGVHD after the glucocorticoid therapy has been administered for 5 days, and (3) incomplete response of aGVHD after the glucocorticoid therapy has been administered for 14 days; • 4) Within 48 h before the start of therapy, neutrophil count (ANC) > 1 × 10^9/L, and platelet count (PLT) ≥ 20×10^9/L; and • 5) Subjects with voluntary participation, signed informed consent, and good compliance.
During the study, the investigator scored aGVHD treatment responses according to Harris 2016 response evaluation criteria.
The evaluation index may be selected from the group consisting of: • Objective response rate (ORR): refers to the percentage of subjects in complete response (CR) or very good partial response (VGPR) or partial response (PR). • Complete response (CR) rate: refers to the percentage of subjects in complete response (CR). • Overall survival (OS): refers to the time from the start of the first administration to death due to any cause. • Duration of response (DOR): for subjects in complete response (CR) or very good partial response (VGPR) or partial response (PR) on day 28, DOR is defined as the time from the date of the first recorded response to the date of the first recorded disease progression or the start of any new systemic therapy for aGVHD. • Event-free survival (EFS): defined as the time from the date of the first administration to the date of relapse/progression of hematologic disease, transplantation failure, or death due to any cause. • Non-relapse mortality (NRM): defined as the time from the date of the first administration to the date of death not related to relapse/progression of hematologic disease. • Incidence of malignancy relapse/progression (MR): defined as the time from the date of the first administration to the date of relapse/progression of hematologic disease.
Twelve evaluable subjects orally took tablets of the compound of formula II twice a day at fasting, at a dose of 10 mg each time, with 28 days as one administration cycle. The ORR of the 12 subjects on D28 was 83.3% (10/12), with 8 achieving CR and 2 achieving VGPR (very good partial response). […] Evaluation of efficacy in patients

[1] = D28, of 12 evaluable subjects, 10 mg twice a day

N#CC[C@H](C1CCCC1)n1cc(-c2ncnc3[nH]ccc23)c(N)n1 [compound of formula II]
Tolerability and safety (10 mg twice a day, oral tablets, overall adverse events being controllable): good tolerability and safety | ORR on D28 (12 evaluable subjects, oral, twice a day at fasting, 10 mg each time, 28-day cycle, Harris 2016 response criteria): 83.3% | ORR on D28 (responders/evaluable subjects) (12 evaluable subjects, oral, twice a day, 10 mg each time, 28-day cycle): 10/12 | Number of subjects achieving CR [1]: 8 | Number of subjects achieving VGPR (very good partial response) [1]: 2 | Number of patients achieving ORR on D28 (subgroup aGVHD Grade II (6 patients)): 6 | Number of patients achieving ORR on D28 (subgroup aGVHD Grade III (6 patients)): 4 | Number of patients achieving ORR on D28 (subgroup organ affected by aGVHD: Liver (5 patients)): 3 | Number of patients achieving ORR on D28 (subgroup organ affected by aGVHD: Lower digestive tract (5 patients)): 4 | Number of patients achieving ORR on D28 (subgroup organ affected by aGVHD: Skin (8 patients)): 8 | Number of patients achieving ORR on D28 (subgroup organ affected by aGVHD: Upper digestive tract (2 patients)): 2 | Number of patients achieving ORR on D28 (subgroup previous therapy Hormone + CD25 monoclonal antibody (1 patient)): 0 | Number of patients achieving ORR on D28 (subgroup previous therapy Hormone + CNI + MMF (6 patients)): 5 | Number of patients achieving ORR on D28 (subgroup previous therapy Hormone + MTX + CNI + MMF (1 patient)): 1 | Number of patients achieving ORR on D28 (subgroup previous therapy Hormone ± CNI (4 patients)): 4
